Assay results taken from ChEMBL document CHEMBL1201862, “PubChem BioAssay data set” (2004).
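Each compound was tested at five concentrations against cells in 96-well plates for 48 hours. At the GI50, growth is halved.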 Activity calls are given as the source filed them. Rule as the data show it: active = GI50 up to about 1.1 µM and inactive = higher.

Assays:
Assay in all cases: NCI tumour cell line growth inhibition, 48 h
OVCAR-3 = test system: OVCAR-3
OVCAR-4 = test system: OVCAR-4
Malme-3M = test system: Malme-3M
DLD-1 = test system: DLD-1
CCRF-CEM = test system: CCRF-CEM
RXF 393 = test system: RXF 393
HCC 2998 = test system: HCC 2998
DMS-114 = test system: DMS-114
M19-MEL = test system: M19-MEL
HCT-15 = test system: HCT-15
SNB-75 = test system: SNB-75
K562 = test system: K562
UACC-62 = test system: UACC-62
EKVX = test system: EKVX
SW-620 = test system: SW-620
HOP-62 = test system: HOP-62
HL-60 = test system: HL-60
HOP-92 = test system: HOP-92
A498 = test system: A498
A549 = test system: A549
U-251 = test system: U-251
KM-20L2 = test system: KM-20L2
HOP-18 = test system: HOP-18
SF-295 = test system: SF-295
NCI-H23 = test system: NCI-H23
OVCAR-8 = test system: OVCAR-8
NCI-H460 = test system: NCI-H460
SK-MEL-5 = test system: SK-MEL-5
UACC-257 = test system: UACC-257
MOLT-4 = test system: MOLT-4
SNB-19 = test system: SNB-19
LOX IMVI = test system: LOX IMVI
NCI-H226 = test system: NCI-H226
OVCAR-5 = test system: OVCAR-5
SF-268 = test system: SF-268
COLO 205 = test system: COLO 205
SR = test system: SR
SN12C = test system: SN12C
IGROV-1 = test system: IGROV-1
SF-539 = test system: SF-539
SK-MEL-2 = test system: SK-MEL-2
HCT-116 = test system: HCT-116
LXFL 529 = test system: LXFL 529
HT-29 = test system: HT-29
SK-MEL-28 = test system: SK-MEL-28
DMS-273 = test system: DMS-273
KM12 = test system: KM12
SK-OV-3 = test system: SK-OV-3
TK-10 = test system: TK-10
M14 = test system: M14
UO-31 = test system: UO-31
RPMI-8226 = test system: RPMI-8226
ACHN = test system: ACHN
NCI-H522 = test system: NCI-H522
SNB-78 = test system: SNB-78
786-0 = test system: 786-0
XF498 = test system: XF498
CAKI-1 = test system: CAKI-1

With COc1ccc(S(=O)(=O)c2ccccc2[N+](=O)[O-])cc1 the GI50 (OVCAR-3) was 98.6 µM (inactive), the GI50 (OVCAR-4) was > 100 µM (inactive) and the GI50 (Malme-3M) was 81.1 µM (inactive). For the same molecule, the GI50 (DLD-1) was > 100 µM (inactive), the GI50 (CCRF-CEM) was > 100 µM (inactive) and the GI50 (RXF 393) was 55.6 µM (inactive). The GI50 (HCC 2998) was > 100 µM (inactive), the GI50 (DMS-114) was 57.7 µM (inactive) and the GI50 (M19-MEL) was 77.8 µM (inactive). The GI50 (HCT-15) was > 100 µM, the GI50 (SNB-75) was 21.9 µM (inactive) and the GI50 (K562) was > 100 µM (inactive). The GI50 (UACC-62) was > 100 µM (inactive), the GI50 (EKVX) was > 100 µM (inactive) and the GI50 (SW-620) was > 100 µM (inactive). The GI50 (HOP-62) was > 100 µM (inactive), the GI50 (HL-60) was 55.6 µM (inactive) and the GI50 (HOP-92) was > 100 µM (inactive). The GI50 (A498) was > 100 µM (inactive), the GI50 (A549) was > 100 µM (inactive) and the GI50 (U-251) was 82.6 µM (inactive). The GI50 (KM-20L2) was > 100 µM (inactive), the GI50 (HOP-18) was > 100 µM (inactive) and the GI50 (SF-295) was 62.8 µM (inactive). For the same molecule, the GI50 (NCI-H23) was 98.9 µM (inactive), the GI50 (OVCAR-8) was > 100 µM (inactive) and the GI50 (NCI-H460) was > 100 µM (inactive). For the same molecule, the GI50 (SK-MEL-5) was 65 µM (inactive), the GI50 (UACC-257) was 71.8 µM (inactive) and the GI50 (MOLT-4) was 92.3 µM (inactive). For the same molecule, the GI50 (SNB-19) was > 100 µM (inactive), the GI50 (LOX IMVI) was 91.4 µM (inactive) and the GI50 (NCI-H226) was > 100 µM (inactive). The GI50 (OVCAR-5) was > 100 µM (inactive), the GI50 (SF-268) was > 100 µM (inactive) and the GI50 (COLO 205) was > 100 µM (inactive). The GI50 (SR) was > 100 µM (inactive), the GI50 (SN12C) was 86.1 µM (inactive) and the GI50 (IGROV-1) was > 100 µM (inactive). For the same molecule, the GI50 (SF-539) was > 100 µM (inactive), the GI50 (SK-MEL-2) was > 100 µM (inactive) and the GI50 (HCT-116) was > 100 µM (inactive). For the same molecule, the GI50 (LXFL 529) was 92 µM (inactive), the GI50 (HT-29) was > 100 µM (inactive) and the GI50 (SK-MEL-28) was 53.5 µM (inactive). The GI50 (DMS-273) was > 100 µM (inactive), the GI50 (KM12) was > 100 µM (inactive) and the GI50 (SK-OV-3) was > 100 µM (inactive). The GI50 (TK-10) was > 100 µM (inactive), the GI50 (M14) was > 100 µM (inactive) and the GI50 (UO-31) was 78 µM (inactive). The GI50 (RPMI-8226) was > 100 µM (inactive).

For Nc1ccc(C(=O)NN2C(=O)C(Cl)C2c2ccc(O)cc2)cc1 (centres undefined), the GI50 (OVCAR-3) was 15 µM (inactive), the GI50 (OVCAR-4) was 19.1 µM (inactive) and the GI50 (Malme-3M) was 18.5 µM (inactive). For the same molecule, the GI50 (DLD-1) was 18.1 µM (inactive), the GI50 (CCRF-CEM) was 12.3 µM (inactive) and the GI50 (ACHN) was 35.2 µM (inactive). The GI50 (DMS-114) was 13 µM (inactive), the GI50 (M19-MEL) was 20.1 µM (inactive) and the GI50 (HCT-15) was 21.4 µM. The GI50 (SNB-75) was 26.5 µM (inactive), the GI50 (K562) was 21.3 µM (inactive) and the GI50 (UACC-62) was 14.9 µM (inactive). For the same molecule, the GI50 (EKVX) was 16.6 µM (inactive), the GI50 (SW-620) was 23.3 µM (inactive) and the GI50 (HOP-62) was 21.7 µM (inactive). For the same molecule, the GI50 (HL-60) was 15.6 µM (inactive), the GI50 (HOP-92) was 24.5 µM (inactive) and the GI50 (A498) was 36 µM (inactive). The GI50 (A549) was 56.9 µM (inactive), the GI50 (U-251) was 16.1 µM (inactive) and the GI50 (KM-20L2) was 19.9 µM (inactive). The GI50 (SF-295) was 33 µM (inactive), the GI50 (NCI-H23) was 17.9 µM (inactive) and the GI50 (OVCAR-8) was 26.5 µM (inactive). For the same molecule, the GI50 (NCI-H460) was 19.3 µM (inactive), the GI50 (SK-MEL-5) was 17.2 µM (inactive) and the GI50 (UACC-257) was 36.1 µM (inactive). For the same molecule, the GI50 (MOLT-4) was 16.1 µM (inactive), the GI50 (SNB-19) was 16 µM (inactive) and the GI50 (LOX IMVI) was 9.27 µM (inactive). The GI50 (NCI-H226) was 25.4 µM (inactive), the GI50 (OVCAR-5) was 21.7 µM (inactive) and the GI50 (SF-268) was 13.4 µM (inactive). The GI50 (NCI-H522) was 11.6 µM (inactive), the GI50 (SNB-78) was 11.9 µM (inactive) and the GI50 (COLO 205) was 18.8 µM (inactive). For the same molecule, the GI50 (SN12C) was 20.1 µM (inactive), the GI50 (IGROV-1) was 17.8 µM (inactive) and the GI50 (SF-539) was 19.1 µM (inactive). For the same molecule, the GI50 (SK-MEL-2) was 15.3 µM (inactive), the GI50 (HCT-116) was 19.2 µM (inactive) and the GI50 (LXFL 529) was 17.8 µM (inactive). For the same molecule, the GI50 (HT-29) was 24.7 µM (inactive), the GI50 (SK-MEL-28) was 22.1 µM (inactive) and the GI50 (786-0) was 17.5 µM (inactive). The GI50 (DMS-273) was 17.2 µM (inactive), the GI50 (KM12) was 21.8 µM (inactive) and the GI50 (SK-OV-3) was 22.8 µM (inactive). For the same molecule, the GI50 (TK-10) was 44.3 µM (inactive), the GI50 (M14) was 17.5 µM (inactive) and the GI50 (XF498) was 14.7 µM (inactive). The GI50 (UO-31) was 23.3 µM (inactive), the GI50 (RPMI-8226) was 49.1 µM (inactive) and the GI50 (CAKI-1) was 25.1 µM (inactive).

For COc1ccc(/C=N/Nc2nc(C)c3c(n2)Nc2ccccc2NC3=O)cc1, the GI50 (OVCAR-4) was > 100 µM (inactive), the GI50 (Malme-3M) was > 100 µM (inactive) and the GI50 (DLD-1) was > 100 µM (inactive). The GI50 (CCRF-CEM) was > 100 µM (inactive), the GI50 (ACHN) was > 100 µM (inactive) and the GI50 (HCC 2998) was > 100 µM (inactive). The GI50 (DMS-114) was > 100 µM (inactive), the GI50 (M19-MEL) was > 100 µM (inactive) and the GI50 (SNB-75) was 42.6 µM (inactive). The GI50 (K562) was > 100 µM (inactive), the GI50 (UACC-62) was > 100 µM (inactive) and the GI50 (HOP-62) was > 100 µM (inactive). For the same molecule, the GI50 (HL-60) was > 100 µM (inactive), the GI50 (HOP-92) was > 100 µM (inactive) and the GI50 (A498) was > 100 µM (inactive). For the same molecule, the GI50 (NCI-H23) was > 100 µM (inactive), the GI50 (MOLT-4) was > 100 µM (inactive) and the GI50 (NCI-H226) was > 100 µM (inactive). The GI50 (SF-268) was > 100 µM (inactive), the GI50 (NCI-H522) was > 100 µM (inactive) and the GI50 (SNB-78) was > 100 µM (inactive). For the same molecule, the GI50 (COLO 205) was > 100 µM (inactive), the GI50 (SR) was > 100 µM (inactive) and the GI50 (SN12C) was > 100 µM (inactive). The GI50 (IGROV-1) was > 100 µM (inactive), the GI50 (SF-539) was > 100 µM (inactive) and the GI50 (SK-MEL-2) was > 100 µM (inactive). For the same molecule, the GI50 (HCT-116) was > 100 µM (inactive), the GI50 (LXFL 529) was 76.7 µM (inactive) and the GI50 (SK-MEL-28) was > 100 µM (inactive). For the same molecule, the GI50 (786-0) was > 100 µM (inactive), the GI50 (DMS-273) was > 100 µM (inactive) and the GI50 (SK-OV-3) was > 100 µM (inactive). For the same molecule, the GI50 (M14) was > 100 µM (inactive), the GI50 (XF498) was > 100 µM (inactive) and the GI50 (UO-31) was > 100 µM (inactive). For the same molecule, the GI50 (RPMI-8226) was > 100 µM (inactive) and the GI50 (CAKI-1) was > 100 µM (inactive).
